Assays:
[1] = tested on: T-Rex 293 cell line SC3 cells lacking increased expression of androgen receptor protein; assay: Cellular growth inhibition, T-Rex 293 SC3 cells without doxycycline (no increased androgen receptor expression), CellTiter-Glo; type: cell-based; settings: T-Rex 293 SC3 cells not exposed to doxycycline (no increased androgen receptor expression), 72 hours
Outline: (§1)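 Growth inhibition is measured in an inducible AR-expressing T-Rex 293 clone, SC3, cultured with or without 10 ng/mL doxycycline in hormone-depleted medium. Test compounds are applied for 72 hours. GI50 values derive from CellTiter-Glo 2.0 signal fitted by four-parameter regression.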

VCaP cells = assay: Cellular growth inhibition assay for VCaP cells, CellTiter-Glo; type: cell-based, human; settings: Homo sapiens, 72 hours
Outline: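 GI50 values come from four-parameter curve fits of luminescence data normalized to a zero baseline. Compound, in medium with 0.5% DMSO, was added one day after plating and left for 72 h before CellTiter-Glo 2.0 addition.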

androgen receptor = molecular target: T1, androgen receptor (Homo sapiens, UniProt P10275); assay: Assay for binding affinity to androgen receptor ([3H]methyltrienolone radioligand competition, cell cytosol); settings: binding to the androgen receptor, 1 nM [3H]methyltrienolone, 24 hr at 4° C.
T1 construct: host or cells: unnamed cells, cytosolic fraction
T1 sequence (P10275 1-920): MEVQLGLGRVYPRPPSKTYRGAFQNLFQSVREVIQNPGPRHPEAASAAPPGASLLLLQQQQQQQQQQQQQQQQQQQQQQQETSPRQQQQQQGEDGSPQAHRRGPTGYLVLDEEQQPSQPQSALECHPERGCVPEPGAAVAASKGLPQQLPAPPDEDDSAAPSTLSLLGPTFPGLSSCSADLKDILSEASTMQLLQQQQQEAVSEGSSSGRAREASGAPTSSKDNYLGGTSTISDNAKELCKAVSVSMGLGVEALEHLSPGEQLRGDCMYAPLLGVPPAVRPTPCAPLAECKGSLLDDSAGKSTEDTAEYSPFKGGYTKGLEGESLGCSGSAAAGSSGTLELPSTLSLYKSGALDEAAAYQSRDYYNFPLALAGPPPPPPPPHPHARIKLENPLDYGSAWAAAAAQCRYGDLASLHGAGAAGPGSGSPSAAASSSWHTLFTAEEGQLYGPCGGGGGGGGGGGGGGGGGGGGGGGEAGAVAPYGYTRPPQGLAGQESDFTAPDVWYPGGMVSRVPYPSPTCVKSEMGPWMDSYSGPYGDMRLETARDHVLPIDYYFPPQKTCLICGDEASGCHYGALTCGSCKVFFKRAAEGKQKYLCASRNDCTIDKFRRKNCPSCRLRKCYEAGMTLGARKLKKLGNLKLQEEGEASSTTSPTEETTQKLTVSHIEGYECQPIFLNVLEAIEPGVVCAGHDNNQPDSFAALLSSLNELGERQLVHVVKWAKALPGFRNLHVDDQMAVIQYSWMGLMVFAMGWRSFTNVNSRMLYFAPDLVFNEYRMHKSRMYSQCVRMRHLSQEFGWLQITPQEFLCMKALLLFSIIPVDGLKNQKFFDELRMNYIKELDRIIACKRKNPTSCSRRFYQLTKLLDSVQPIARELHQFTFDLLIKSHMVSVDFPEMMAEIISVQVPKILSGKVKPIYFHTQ
Protocol: Fractions of cell cytosol ([…]) were incubated for 24 hr at 4° C. with 1 nM [^3H]methyltrienolone in the absence or presence of the test compound in a buffer containing 25 mM Hepes-Tris (pH 7.4), 1 mM EDTA, 10 mM Na2MoO4, 2 mM DTT, 5 μM triamcinolone acetonide, and 10% glycerol. Nonspecific binding was determined in the presence of […] testosterone. Following incubation, the samples were filtered rapidly under vacuum through glass fiber filters (GF/B, Packard) presoaked with 0.3% PEI and rinsed several times with ice-cold 50 mM Tris-HCl using a 96-sample cell harvester (Unifilter, Packard). The filters were dried then counted for radioactivity in a scintillation counter (Topcount, Packard) using a scintillation cocktail (Microscint 0, Packard). The results are expressed as a percent inhibition of the control radioligand specific binding. The standard reference compound is testosterone, which is tested in each experiment at several concentrations to obtain a competition curve from which its IC50 is calculated.

[2] = tested on: T-Rex 293 cell line SC3 cells having increased expression of androgen receptor protein due to exposure to doxycycline; assay: Cellular growth inhibition, T-Rex 293 SC3 cells with doxycycline (increased androgen receptor expression), CellTiter-Glo; type: cell-based; settings: T-Rex 293 SC3 cells with 10 ng/mL doxycycline (increased androgen receptor expression), 72 hours, CellTiter-Glo 2.0
Outline: as §1

T47D cells = assay: Cellular Growth Inhibition Assay for T47D Cells (CellTiter-Glo); type: cell-based, human; settings: Homo sapiens, 72 hours
Outline: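 GI50 values derive from four-parameter regression of CellTiter-Glo 2.0 luminescence, using zero luminescence as baseline. Human breast cancer T47D cells (3000/well; DMEM, 10% FBS, 0.2 units/mL insulin) were exposed for 72 h to compound dilutions at 0.5% DMSO, with dosing starting 24 h after seeding.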

progesterone receptor = molecular target: T2, progesterone receptor (Homo sapiens, UniProt P06401); assay: PR Human Progesterone NHR Binding (Agonist Radioligand) Assay, [3H]progesterone, T47D cytosolic fractions; settings: 0.5 nM [3H]progesterone, 1 hour at 4° C.
T2 sequence (P06401 679-933 limits assumed): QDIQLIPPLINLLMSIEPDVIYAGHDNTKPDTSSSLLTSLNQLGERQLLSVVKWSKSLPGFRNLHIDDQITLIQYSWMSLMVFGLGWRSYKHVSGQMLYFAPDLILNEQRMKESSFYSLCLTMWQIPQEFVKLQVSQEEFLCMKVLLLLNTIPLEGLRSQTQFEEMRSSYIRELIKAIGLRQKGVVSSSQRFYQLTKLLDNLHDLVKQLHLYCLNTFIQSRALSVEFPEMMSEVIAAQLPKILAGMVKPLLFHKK
Protocol: Exemplary compounds were tested for ability to bind to the progesterone receptor.
Compounds were tested using the PR Human Progesterone NHR Binding (Agonist Radioligand) Assay, Cerep at Eurofins Discovery using a modified version of the protocol from Sarup et al. (Cancer Res 1988; 48:5071-5078). Briefly, cytosolic fractions of T47D cells were incubated with 0.5 nM [^3H]progesterone for 1 hour at 4° C. in the absence or presence of the test compound. Nonspecific binding was determined in the presence of […] promegestone. Reactions were subjected to scintillation counting. Results are expressed as a percent inhibition of the control radioligand specific binding.

GI50 (VCaP cells) [µM]	Ki (androgen receptor) [µM]	GI50 (T47D cells) [µM]	Ki (progesterone receptor) [µM]	SMILES	GI50 [1] [µM]	GI50 [2] [µM]
< 0.5	0.05 to 0.5			CCS(=O)(=O)Nc1ccc(Oc2cccc(OCCOC3CCN(c4cnc(C(=O)N[C@H]5C(C)(C)[C@H](Oc6ccc(C#N)c(Cl)c6)C5(C)C)nc4)CC3)c2)c(-c2cn(C)c(=O)c3[nH]ccc23)c1 [Compound I-73, N-((1r, 3r)-3-(3-chloro-4-cyanophenoxy)-2,2,4,4-tetramethylcyclobutyl)-5-(4-(2-(3-(4-(ethylsulfonamido)-2-(6-methyl-7-oxo-6,7-dihydro-1H-pyrrolo[2,3-c]pyridin-4-yl)phenoxy)phenoxy)ethoxy)piperidin-1-yl)pyrimidine-2-carboxamide]	< 0.5	< 0.5
		< 0.5	0.5 to 2.5	Cn1cc(-c2cc(C(C)(C)O)ccc2Oc2ccc(N3CC(CC4CCN(c5cnc(C(=O)N[C@H]6C(C)(C)[C@H](Oc7ccc(C#N)c(C(F)(F)F)c7)C6(C)C)cn5)CC4)C3)cc2)c2cc[nH]c2c1=O [Compound I-373]		

— patent publication US20250388605A1, “HETEROBIFUNCTIONAL COMPOUNDS AND METHODS OF TREATING DISEASE” (Halda Therapeutics OpCo, Inc., priority 2022, published 2025)
